Data on 22 compounds can be found in patent US8518980B2, “Treatment of Duchenne muscular dystrophy” (Summit Corporation PLC, priority 2006, dated 2013).

Where only a bound is given, the exact number is not on record here.

In the assay the test system is Utrophin A promoter linked to a luciferase reporter gene (H2K/mdx/Utro A reporter cell line). Nature of the assay: Luciferase reporter assay (murine H2K cells). The note with it: Mus musculus, H2K mdx. (In general: A reporter such as luciferase makes a cellular process visible.)
As for `COc1ccc(C(=O)Nc2ccc(-c3nc4ccccc4[nH]3)cc2)cc1OC` [Example 494, N-(4-(1H-benzo[d]imidazol-2-yl)phenyl)-3,4-dimethoxybenzamide], the activity at 10 µM is under 200%.
On to `Clc1ccc(OCc2nc3ccccc3[nH]2)cc1` [Example 495, 2-((4-chlorophenoxy)methyl)-1H-benzo[d]imidazole], for which the activity at 10 µM was under 200%.
Turning to `Nc1ccc2nc(-c3ccc(-c4nc5ccc(N)cc5[nH]4)cc3)[nH]c2c1` [Example 476, 2,2′-(1,4-phenylene)bis(1H-benzo[d]imidazol-6-amine)], the activity at 10 µM is under 200%.
For `COc1ccc2oc(-c3ccc(C)c(N)c3)nc2c1` [Example 686, 5-(5-methoxybenzo[d]oxazol-2-yl)-2-methylaniline], the activity at 10 µM is 201 to 300%.
As to `Clc1ccc(OCc2nc3ccccc3n2Cc2ccccc2Cl)c(Cl)c1` [Example 465, 1-(2-chlorobenzyl)-2-((2,4-dichlorophenoxy)methyl)-1H-benzo[d]imidazole], the activity at 10 µM was under 200%.
In the case of `CCCc1nc2cc(S(=O)(=O)CC)ccc2o1` [Example 571, 5-(ethylsulfonyl)-2-propylbenzo[d]oxazole] it was under 200%; in that of `Cc1ccc2nc(-c3ccc(NC(=O)C(C)C)cc3)oc2c1` [Example 564, N-(4-(6-methylbenzo[d]oxazol-2-yl)phenyl)isobutyramide], under 200%; in that of `O=C(Nc1cccc(-c2nc3ccccc3[nH]2)c1)c1ccccc1` [Example 464, N-(3-(1H-benzo[d]imidazol-2-yl)phenyl)benzamide], under 200%.
On to `CCOCCC(=O)Nc1ccc(-c2nc3ccc(C)cc3s2)cc1` [Example 660, 3-ethoxy-N-(4-(6-methylbenzo[d]thiazol-2-yl)phenyl)propanamide], for which the activity at 10 µM was 301 to 400%.
Turning to `Cc1ccnc(Nc2nc3ccccc3o2)n1` [Example 682, N-(4-methylpyrimidin-2-yl)benzo[d]oxazol-2-amine], the activity at 10 µM lay within 201 to 300%.
As for `Nc1cc(-c2nc3ccccc3s2)ccc1Cl` [Example 592, 5-(Benzo[d]thiazol-2-yl)-2-chloroaniline], the activity at 10 µM is over 401%.
On to `Cc1cc(C)c2nc(-c3ccc(N)cc3)oc2c1` [Example 590, 4-(4,6-Dimethylbenzo[d]oxazol-2-yl)aniline], for which the activity at 10 µM is over 401%.
Turning to `Cc1ccc2[nH]c(-c3sc4nc(C)ccc4c3N)nc2c1` [Example 632, 6-methyl-2-(5-methyl-1H-benzo[d]imidazol-2-yl)thieno[2,3-b]pyridin-3-amine], the activity at 10 µM is over 401%.
`Cc1ccc(-c2nc3ccccc3s2)cc1N` [Example 479, 5-(benzo[d]thiazol-2-yl)-2-methylaniline]: the activity at 10 µM was in the range of 201 to 300%.
For `CCOCC(=O)Nc1ccc(-c2nc3ccc(C)cc3s2)cc1` [Example 657, 2-ethoxy-N-(4-(6-methylbenzo[d]thiazol-2-yl)phenyl)acetamide], the activity at 10 µM is 301 to 400%.
The same measure for `Cc1ccc2nc(NC(=O)c3ccco3)sc2c1` [Example 652, N-(6-methylbenzo[d]thiazol-2-yl)furan-2-carboxamide]: 301 to 400%.
Consider `CCOc1ccc2nc(NC(=O)c3ccccc3)sc2c1` [Example 555, N-(6-ethoxybenzo[d]thiazol-2-yl)benzamide], for which the activity at 10 µM is under 200%.
For the compound `O=[N+]([O-])c1ccc2oc(-c3ccccc3)nc2c1` [Example 492, 5-nitro-2-phenylbenzo[d]oxazole], the activity at 10 µM was 201 to 300%.
Regarding `Cc1c(N)cccc1-c1nc2cc(Cl)ccc2o1` [Example 566, 3-(5-chlorobenzo[d]oxazol-2-yl)-2-methylaniline], the activity at 10 µM was under 200%.
For the compound `O=C(Nc1ccc(-c2nc3ncccc3o2)cc1)c1ccccc1Cl` [Example 641, 2-chloro-N-(4-(oxazolo[4,5-b]pyridin-2-yl)phenyl)benzamide], the activity at 10 µM lay within 301 to 400%.
`CCCCc1nc2cc(S(=O)(=O)CC)ccc2o1` [Example 570, 2-butyl-5-(ethylsulfonyl)benzo[d]oxazole]: the activity at 10 µM is under 200%.
On to `O=C(Nc1nc2ccc(F)cc2s1)c1ccccc1Br` [Example 629, 2-bromo-N-(6-fluorobenzo[d]thiazol-2-yl)benzamide], for which the activity at 10 µM was over 401%.
